One compound from patent publication US20240174762A1, “METHODS, COMPOSITIONS AND USES FOR TARGETING SEMA7A IN THE DIAGNOSIS AND TREATMENT OF HEALTH CONDITIONS” (THE REGENTS OF THE UNIVERSITY OF COLORADO, A BODY CORPORATE, priority 2021, published 2024) can be followed below.

The subject of the assay is human MCF7 model of ER+ breast cancer. In words: ER+ SEMA7A expressing tumors, human MCF7 model. The class given is in vivo, mice. The settings on record: FIG. 11. An excerpt:
FIGS. 11A-11H represents various graphs and images of tumor analysis and treatment according to various aspects of the disclosure. (A) represents analysis for relapse free survival of breast cancer patients treated with endocrine therapy assessed for SEMA7A levels; (B) MCF7 tumor cell growth in mice treated with endocrine therapy (e.g., Fulvestrant); (C) Lung metastasis of MCF7 in mice from 11B; (D) is a representative image illustrating BCL2 expression in SEMA7A OE cells; (E) MCF7 tumor growth in mice treated with endocrine therapy and a Bcl-2 inhibitor (e.g., Venetoclax) indicated by the arrows; (F) Lung metastasis in mice from […] above; (G) illustrates clonogenic growth of MCF7 EV or SEMA7A OE cells treated with 5 μM SU6656; clonogenic data are normalized to vehicle controls; and (H) represents clonogenic growth of MCF7 EV or SEMA7A OE cells treated with a composition according to various aspects of the disclosure.
In another exemplary method, ER+SEMA7A expressing tumors are resistant to anti-estrogen-based therapy (Fulvestrant), anti-CDK4/6 therapy (Palbociclib), and chemotherapy but are sensitive to inhibition of cell survival pathways. […]

With `C[C@]12CC[C@@H]3c4ccc(O)cc4C[C@@H](CCCCCCCCC[S+]([O-])CCCC(F)(F)C(F)(F)F)[C@H]3[C@@H]1CC[C@@H]2O` (stereo partly shown) [Fulvestrant], the “response of ER+SEMA7A expressing tumors to therapy” value was “resistant”.
